Laboratory results from patent publication EP2813216A1, “Stabilized amorphous ticagrelor” (Zentiva, a.s., priority 2013, dated 2014).

Assays:
[1] = low solubility, low permeability; cited from earlier work
[2] = Differential scanning calorimetry (DSC), glass transition temperature; format: physicochemical; settings: neat substance (not a solid solution)
Description: DSC curves were measured with a Pyris 1 (Perkin Elmer) device. The sample charge was 3-4 mg, heating rate 10 °C/min. Nitrogen was used as a carrier gas (20 ml/min).
The products were characterized by XRPD and DSC analysis.
In all cases the Tg values were higher for solid solution of 1:2 ratio than those for 1:1 ratio. Therefore, the 1:2 API to polymer ratio was able to form more physically stable solid solutions. It is known that the physical stability of the solid solution is increased with a higher glass transition temperature (Hancock and Zografi, 1997).

CCCSc1nc(N[C@@H]2C[C@H]2c2ccc(F)c(F)c2)c2nnn([C@@H]3C[C@H](OCCO)[C@@H](O)[C@H]3O)c2n1 [ticagrelor, (1S,2S,3R,5S)-3-[7-[(1R,2S)-2-(3,4-Difluorophenyl)cyclopropylamino]-5-(propylthio)-3H-[1,2,3]triazolo[4,5-d]pyrimidin-3-yl]-5-(2-hydroxyethoxy)cyclopentane-1,2-diol]
Biopharmaceutical Classification System (BCS) class [1]: class IV

CCCSc1nc(N[C@@H]2C[C@H]2c2ccc(F)c(F)c2)c2nnn([C@@H]3C[C@H](OCCO)[C@@H](O)[C@H]3O)c2n1 [Amorphous ticagrelor, (1S,2S,3R,5S)-3-[7-[(1R,2S)-2-(3,4-Difluorophenyl)cyclopropylamino]-5-(propylthio)-3H-[1,2,3]triazolo[4,5-d]pyrimidin-3-yl]-5-(2-hydroxyethoxy)cyclopentane-1,2-diol]
glass transition temperature (Tg) [2]: about 46 °C
